Series [1] has as its system Pseudomonas aeruginosa, Escherichia coli, Klebsiella sp., Salmonella sp., Staphylococcus aureus, Enterococcus sp., Bacillus subtilis. Kind of series: Antimicrobial activity / minimum inhibitory concentrations on seven strains of bacteria. The format is cell-based. To be noted: seven strains of bacteria. How it is done:
(§1) Seven strains of bacteria were used in the assessment of the antimicrobial activity of the ILs claimed: 4 gram negative and three gram positive as shown below.
(§2) A wide concentration range was tested (0-20000 μg/ml). The concentrations screened for antibacterial activity are generally from 2 μg/ml to 1000 μg/ml (Table 6). […] The concentration range screened for the ILs containing ethers was up to 20000 μg/ml. At these high concentrations a lack of antibacterial activity is a significant result.

Series [2] has as its system E. coli. Kind of series: Percentage kill of bacteria by KG20. The format is cell-based, Escherichia coli. An excerpt: (§3) A test reference study with 1-methyl-3-decyloxy-carbonyl methylimidazole bromide salt KG20, known to be toxic due to the long alkyl chain, has been completed to provide reference data. This experiment compares, for the same side chain length, the impact of the presence of the oxygen (e.g. KG15) on toxicity.

Series [3] has as its system P. aeruginosa. Kind of series: Percentage kill of bacteria by KG20. In kind it is cell-based, Pseudomonas aeruginosa.
From the text: as §3

In series [4] the test system is Enterococcus sp. Kind of series: Percentage kill of bacteria by KG20. In kind it is cell-based.
From the text: as §3

For series [5], the system named is Klebsiella sp. Description: Percentage kill of bacteria by KG20. In kind it is cell-based.
From the text: as §3

For series [6], the system named is Salmonella sp. Description: Percentage kill of bacteria by KG20. The format is cell-based.
From the text: as §3

The test system of series [7] is S. aureus. Description: Percentage kill of bacteria by KG20. In kind it is cell-based, Staphylococcus aureus.
From the text: as §3

The test system of series [8] is B. subtilis. Description: Percentage kill of bacteria by KG20. In kind it is cell-based, Bacillus subtilis.
From the text: as §3

Series [9] is described as follows: Antimicrobial activity / minimum inhibitory concentrations on seven strains of bacteria. The format is cell-based. The settings on record: read-out: MIC values. The method, then:
as §1, §2

Series [10] deals with microbes. To be noted: literature (Bodor et al.); cited from earlier work.
Where [11] appears, read: seven strains, not split, range tested 0-20000 μg/ml.

Consider nine compounds from patent publication US8541598B2, “Biodegradable solvents for the chemical industry” (Dublin City University, priority 2007, dated 2013).

“Also recorded” adds a separate entry of the source. Like-named read-outs stand apart in the source and are kept apart here.

`CCCCCCCCCCOC(=O)Cn1cc[n+](C)c1.[Br-]` [KG20, 3-methyl-1-(decanoxycarbonylmethyl)imidazolium bromide]: in [1], the “toxicity / antibacterial activity in words” value is “toxic to all the different bacteria screened; also recorded: potent antibacterial”. Further, the Percentage kill in series [2] (3.9 μg/ml) was 10%; in series [2] (7.8 μg/ml), 8.5%; in series [2] (15.62 μg/ml) it was 17%; in series [2] (31.25 μg/ml), 28%; in [2] (62.5 μg/ml), 37%; in [2] (125 μg/ml) it was 92%. Further, the Percentage kill in [2] (250 μg/ml) is reported as 92%; in series [2] (500 μg/ml) it was 82%; in series [2] (1000 μg/ml) it was 91%; in [3] (3.9 μg/ml) it was 0%; in [3] (7.8 μg/ml) it was 0%; in series [3] (15.62 μg/ml), 0%. The Percentage kill is 6% in series [3] (31.25 μg/ml); 0% in series [3] (62.5 μg/ml); 55.5% in series [3] (125 μg/ml); 82% in series [3] (250 μg/ml); 82% in [3] (500 μg/ml); 100% in series [3] (1000 μg/ml). Further, the Percentage kill stood at 6.5% in [4] (3.9 μg/ml); 6% in series [4] (7.8 μg/ml); 23% in series [4] (15.62 μg/ml); 18.7% in [4] (31.25 μg/ml); 48.7% in series [4] (62.5 μg/ml); 49.5% in [4] (125 μg/ml). Besides, the Percentage kill in series [4] (250 μg/ml) was 83.4%; in [4] (500 μg/ml) it was 84%; in series [4] (1000 μg/ml), 96.4%; in [5] (3.9 μg/ml), 0%; in series [5] (7.8 μg/ml) it was 0%; in series [5] (15.62 μg/ml) it was 0%. In addition, the Percentage kill in [5] (31.25 μg/ml) was 0%; in series [5] (62.5 μg/ml), 7%; in series [5] (125 μg/ml) it was 21%; in series [5] (250 μg/ml), 64%; in series [5] (500 μg/ml) it was 68.2%; in series [5] (1000 μg/ml), 91.8%. In addition, the Percentage kill in [6] (3.9 μg/ml) was determined as 0%; in series [6] (7.8 μg/ml), 0%; in [6] (15.62 μg/ml), 0%; in [6] (31.25 μg/ml), 0%; in series [6] (62.5 μg/ml) it was 10%; in [6] (125 μg/ml), 58%. Moreover, the Percentage kill in series [6] (250 μg/ml) turned out to be 73.5%; in series [6] (500 μg/ml), 88%; in [6] (1000 μg/ml), 86%; in series [7] (3.9 μg/ml), 66%; in series [7] (7.8 μg/ml), 90%; in series [7] (15.62 μg/ml) it was 88.2%. Also, the Percentage kill is 86.4% in [7] (31.25 μg/ml); 90.3% in series [7] (62.5 μg/ml); 80.7% in series [7] (125 μg/ml); 93.8% in [7] (250 μg/ml); 96% in series [7] (500 μg/ml); 0% in [8] (3.9 μg/ml). Also, the Percentage kill in series [8] (7.8 μg/ml) came to 0%; in series [8] (15.62 μg/ml), 0%; in series [8] (31.25 μg/ml) it was 0%; in series [8] (62.5 μg/ml), 0%; in series [8] (125 μg/ml) it was 80.2%; in [8] (250 μg/ml), 81.5%. For the same compound, the Percentage kill in series [8] (500 μg/ml) is given as 83.2%; in series [8] (1000 μg/ml), 100%.

One may read the MIC as the least concentration at which growth counts as inhibited. `COCCOCCOC(=O)C[n+]1ccn(C)c1` [KG40, 3-methyl-1-(2-[2-methoxyethoxy]ethoxycarbonylmethyl)imidazolium octylsulfate]: in [9] (setting [11]), the MIC is over 20000 µg/mL. The “toxicity / antibacterial activity in words” value in [1] is reported as “non-toxic”.

`CCOCCOCCOC(=O)C[n+]1ccn(C)c1` [KG41, 3-methyl-1-(2-[2-ethoxyethoxy]ethoxycarbonylmethyl)imidazolium octylsulfate]: the MIC in series [9] came out at 10000 µg/mL. In addition, in series [1], the “toxicity / antibacterial activity in words” value was “non-toxic”.

On to `CCCOCCOCCOC(=O)C[n+]1ccn(C)c1` [KG42, 3-methyl-1-(2-[2-propoxyethoxy]ethoxycarbonylmethyl)imidazolium octylsulfate], for which, in series [9] (setting [11]), the MIC was over 20000 µg/mL. Further, the “toxicity / antibacterial activity in words” value in series [1] is “non-toxic”.

Take `CCCCOCCOCCOC(=O)C[n+]1ccn(C)c1` [KG43, 3-methyl-1-(2-[2-butoxyethoxy]ethoxycarbonylmethyl)imidazolium octylsulfate]: the MIC in [9] (setting [11]) amounted to 10000 µg/mL. For the same compound, in series [1], the “toxicity / antibacterial activity in words” value is given as “non-toxic”.

For the compound `CCCCOCCOC(=O)C[n+]1ccn(C)c1C` [KG44], the MIC in series [9] is over 20000 µg/mL. The “toxicity / antibacterial activity in words” value in series [1] is “non-toxic”.

For `COCCOCCOC(=O)C[n+]1ccn(C)c1C` [KG45, 2,3-dimethyl-1-(2-[2-methoxyethoxy]ethoxycarbonylmethyl)imidazolium octylsulfate], the MIC in series [9] worked out at 10000 µg/mL. The “toxicity / antibacterial activity in words” value in series [1] is reported as “non-toxic”.

For `COCCN(CCOC)C(=O)C[n+]1ccn(C)c1` [KG405], the MIC in [9] (setting [11]) was over 20000 µg/mL. Besides, in series [1], the “toxicity / antibacterial activity in words” value is “low toxicity; also recorded: non-toxic”.

As for `CCCCCCCCCCCC(=O)OCn1cc[n+](C)c1.[Cl-]` [compound 6, 1-[(n-Dodecanoyloxy)methyl]-3-methylimidazolium Chloride], the “antimicrobial activity in words” value in [10] was “effective antimicrobial activity at ppm concentrations; also recorded: potent antibacterials”.
